These results are taken from paper PMC8085013, “Mixture interactions at mammalian olfactory receptors are dependent on the cellular environment” (Scientific Reports, 2021).

Test [1] has as its system endogenous adrenergic receptors. Put plainly: Isoproterenol saturating control in the cAMP/CNGCmut calcium influx assay in HEK293 cells. The class given is cell-based. The settings on record: 10 µM, applied for 5-min. As to the method:
Calcium imaging was performed as described previously. HEK293 cells were incubated (30 min/37 °C) in a DMEM containing 6–8 µM Fluo-4/AM (Invitrogen) or Fluo-2/AM (TefLabs) containing 0.04% Pluronic F127. Activity of cells expressing untagged ORs from the bicistronic pTR plasmid was reported by expressed GCaMP3. Odorant solutions were applied sequentially to the cells for 5 s with a 3 min interval between each application to allow recovery from desensitization resulting from previous application of odorants. In the case of prolonged 10-min stimulation, the cells were allowed to recover for at least 10 min before adding a binary mix or isoproterenol alone, activating endogenous production of cAMP. Cells growing either on a 35-mm plastic dish or on a round poly-L-lysine coated cover glass were transferred to the stage of an inverted microscope (Axiovert 200, Zeiss) equipped with a 10x/0.5NA Fluar objective. Odorants were applied to the cells as a 5-s long pulse using a computer-controlled fast perfusion system (RSC-200, BioLogic, France) ensuring precise delivery of the stimulus with a minimal time lag. The perfusion system was controlled by Clampex 9.2 or 10.2 software (Molecular Devices). In some experiments, cells were pre-incubated with a putative antagonist for 30-s before applying a 5-s pulse of agonist. […]

Test [2] has as its target T1, mouse Olfr73 (Mus musculus, UniProt Q920P2).
T1 sequence (Q920P2 1-313): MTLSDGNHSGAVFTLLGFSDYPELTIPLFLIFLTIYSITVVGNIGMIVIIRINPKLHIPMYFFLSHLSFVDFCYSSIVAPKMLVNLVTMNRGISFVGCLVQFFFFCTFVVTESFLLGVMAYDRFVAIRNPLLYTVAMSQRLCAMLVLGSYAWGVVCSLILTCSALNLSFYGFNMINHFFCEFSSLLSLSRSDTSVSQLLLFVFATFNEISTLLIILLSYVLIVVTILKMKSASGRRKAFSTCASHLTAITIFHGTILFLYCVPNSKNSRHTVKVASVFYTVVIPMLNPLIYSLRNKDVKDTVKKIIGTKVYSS
Put plainly: GCaMP3 calcium imaging of rat OSNs ectopically expressing Olfr73 (rAAV2/5), 5-s odorant pulse. Type of test: cell-based. The settings on record: 5-s pulse.

Test [3] concerns the target T1, mouse Olfr73. Details: method as in PMID 25149566. The note with it: starred cells, previously published in vitro work under the same conditions ref 25; cited from earlier work.
The target of test [4] is T1, mouse Olfr73. Description: GCaMP3 calcium imaging of mouse OSNs ectopically expressing Olfr73 (rAAV2/5), 5-s odorant pulse. Type of test: cell-based. The settings on record: 5-s pulse.
In test [5] the target is T1, mouse Olfr73. Details: method as in PMID 25149566. The note with it: starred cells, previously published in vitro work under the same conditions ref 25; cited from earlier work. The source holds these as a separate data set.
Test [6] deals with T2, Olfr599 (Mus musculus, UniProt Q8VG01). Put plainly: GCaMP3 calcium imaging of mouse OSNs ectopically expressing Olfr599 (rAAV2/5). The class given is cell-based. The settings on record: each at 100 µM, 5-s pulse. As to the method: Animals 4–6 weeks of age were used for experiments 7–21 days post-inoculation with rAAV2/5 encoding OR-furin2A-GCaMP3. Calcium imaging was performed as detailed previously. Tissue was prepared and mounted with the apical surface facing up. The chamber was transferred to the stage of an upright microscope (Zeiss Axioskop-2F) equipped with a 40×/0.75NA long distance water-immersion objective lens. Experimental solutions were applied for a duration of 5 s directly to the field of view through a 100 µm diameter needle made of fused silica and connected to a 9-channel Teflon manifold. Solution application was controlled by electronic valves (VC-6, Warner Instruments). The calcium response is presented as an increase of GCaMP3 fluorescence originating from the knob and underlying dendrite. The tissue was illuminated using a standard eGFP filter cube BP490 nm/ 535 nm (Omega Optical, USA) and the emitted light was collected at 530 nm (BP 530/20 nm, Omega Optical, USA) by a 12-bit cooled CCD camera (ORCA R2, Hamamatsu, Japan). […] Before processing, fluorescence intensity was corrected for the background. Each knob was assigned a region of interest (ROI) and changes in fluorescence intensity within each ROI were analyzed and expressed as the peak fractional change in fluorescent light intensity (F-Fo)/Fo where Fo is the baseline fluorescence before application of experimental solutions.

Test [7] concerns the target T2, Olfr599. Put plainly: Calcium imaging of HEK293 cells expressing Olfr599. Type of test: cell-based. How it is done: Heterologous expression of mouse ORs was based on the previously published method. HEK293 (ATCC CRL-1537) or HEK293T (ATCC CRL-3216) cells were grown in a high glucose […] (DMEM) supplemented with 10% FBS, penicillin and streptomycin, and 2 mM L-glutamine and maintained at 37 °C (5% CO2). A rhodopsin-tagged mouse olfactory receptor Olfr73 and Olfr599 (provided by Dr. Matsunami, Duke University) was co-expressed with RTP1s, a short version of the Receptor Transporting Protein 1 ensuring proper surface trafficking of the receptor (provided by Dr. Touhara, University of Tokyo). To reconstitute different G-protein coupled signaling pathways, one of the three G-proteins was co-expressed along with the OR and RTP1s, promiscuous mouse Gα15 (Thermo Scientific Open Biosystems), heterotrimeric Gαq11/ß1/γ13, both coupled to endogenous PLC/calcium release, and human Gαolf (Missouri S&T cDNA Resource Center). To assay activity-dependent accumulation of cAMP generated by activation of the Gs/Golf pathway, the cells were additionally co-transfected with a mutated A2 subunit of the rat olfactory cyclic nucleotide gated channel (CNGCmut). Two mutations C460W and E583M ensured high sensitivity and selectivity of the channel to cAMP (a gift from Dr. Rich, University of South Alabama). Transfections were performed using Calfectin (SignaGen). […]

T2 sequence (Q8VG01 entry or part of it): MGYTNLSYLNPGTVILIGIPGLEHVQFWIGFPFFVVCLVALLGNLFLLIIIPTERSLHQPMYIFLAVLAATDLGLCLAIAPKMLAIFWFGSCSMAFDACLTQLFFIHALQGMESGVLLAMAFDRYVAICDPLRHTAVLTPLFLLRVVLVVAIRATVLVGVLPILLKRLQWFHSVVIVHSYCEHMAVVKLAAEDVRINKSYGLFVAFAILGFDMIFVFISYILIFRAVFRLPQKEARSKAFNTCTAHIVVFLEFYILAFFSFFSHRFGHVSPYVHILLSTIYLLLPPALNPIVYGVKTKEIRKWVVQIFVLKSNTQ

With `CC(C)NCC(O)c1ccc(O)c(O)c1` (stereo not shown) [Isoproterenol], the cAMP-dependent response result in test [1] was “robust sustained response”.

Turning to `C=C(C)[C@@H]1CCC2=CC(=O)C[C@@H](C)[C@]2(C)C1` [Nootkatone, nootkatone], the “Agonism/antagonism, OSN Ca2+ Rat” value at mouse Olfr73 [2] (strong agonist 100 µM, putative antagonist 1 mM) is “Agonist”. Further, the “Response to ligand applied alone” value at mouse Olfr73 [2] (rat Olfr73-OSNs) was “lower than that to eugenol”; at mouse Olfr73 [4] (mouse Olfr73-OSNs) it was “weak agonist”. In addition, the “Agonism/antagonism, HEK293 short odor Ca2+ G15” value on mouse Olfr73 [3] is reported as “Inactive*”. For the same compound, the “Agonism/antagonism, OSN Ca2+ Mouse” value at mouse Olfr73 [4] (strong agonist 100 µM, putative antagonist 1 mM, single or as pair) is “Agonist”. Also, the “Response relative to the response to eugenol” value at mouse Olfr73 [4] (ligand 1 mM, Olfr73-OSNs) is listed as 50%. On mouse Olfr73 [5], the “Agonism/antagonism, HEK293 short odor Ca2+ Gs/olf” value is recorded as “Inactive*”.

`CCCCCCCC(=O)O` [Octanoic acid]: the “Response to ligand applied alone” value at Olfr599 [6] is on record as “evoked reliable neuronal responses”; at Olfr599 [7] (HEK293, Olfr599 with Gαq11/ß1/γ13, 100 µM), “robust activation”. Moreover, on Olfr599 [7] (HEK293 cells, Olfr599), the 50% effective concentration (EC50) (in general, the midpoint of the concentration-response curve) stood at 70 µM.

For the compound isoeugenol, the “Agonism/antagonism, HEK293 short odor Ca2+ G15” value at mouse Olfr73 [3] is “Agonist*”. For the same compound, the “Agonism/antagonism, HEK293 short odor Ca2+ Gs/olf” value at mouse Olfr73 [5] is “Agonist*”.
